pIC50: −log10 of the molar value.
Legend:
Format in all cases: binding
TIPARP = molecular target: T1, TIPARP (Homo sapiens, UniProt Q7Z3E1); test: In vitro TR-FRET probe displacement assay (Probe C), TIPARP; conditions: TR-FRET displacement of Probe C, TIPARP residues 456-657
T1 construct: made in house; host or cells: E. coli
T1 sequence (Q7Z3E1 456-657): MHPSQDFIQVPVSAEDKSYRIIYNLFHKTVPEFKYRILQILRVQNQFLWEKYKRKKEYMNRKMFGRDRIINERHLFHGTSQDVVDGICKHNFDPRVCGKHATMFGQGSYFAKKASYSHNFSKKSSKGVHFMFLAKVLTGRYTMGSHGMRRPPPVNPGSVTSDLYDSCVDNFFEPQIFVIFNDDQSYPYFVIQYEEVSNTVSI
Experimental: A portion of TIPARP (residues 456 to 657 of NP_056323.2 (SEQ ID NO: 1), GenBank Accession No. NM_015508.4) was overexpressed in E. coli cells. An N-terminal fusion tag, […] (SEQ ID NO: 7), was used to purify the protein from cell lysates. The fusion tag was left on the protein for use in the probe displacement assay.
(§1) Displacement of a Probe C binding to monoPARP active sites was measured using a time-resolved fluorescence resonance energy transfer (TR-FRET) assay. 20 nL of a dose response curve of each test compound was spotted in black 384-well polystyrene proxiplates (Perkin Elmer) using a Mosquito (TTP Labtech). Reactions were performed in an 8 μL volume by adding 6 μL of the monoPARP and Probe C in assay buffer (20 mM HEPES pH=8, 100 mM NaCl, 0.1% bovine serum albumin, 2 mM DTT and 0.002% Tween20), incubating with test compound at 25° C. for 30 min, then adding 2 μL of ULight-anti 6×His and LANCE Eu-W 1024 labeled streptavidin (Perkin Elmer). Binding reactions were equilibrated at 25° C. for an additional 30 min, then read on an Envision platereader equipped with a LANCE/DELFIA top mirror (Perkin Elmer) using excitation of 320 nm and emission of 615 nm and […] with a 90 μs delay. The ratio of the 665/615 nm emission were calculated for each well to determine the amount of complex of monoPARP and Probe C in each well. […]

PARP15 = molecular target: T2, PARP15 (Homo sapiens, UniProt Q460N3); test: In vitro TR-FRET probe displacement assay (Probe C), PARP15; conditions: TR-FRET displacement of Probe C, PARP15 residues 481-678
T2 construct: made in house; host or cells: Sf9
T2 sequence (Q460N3 481-678): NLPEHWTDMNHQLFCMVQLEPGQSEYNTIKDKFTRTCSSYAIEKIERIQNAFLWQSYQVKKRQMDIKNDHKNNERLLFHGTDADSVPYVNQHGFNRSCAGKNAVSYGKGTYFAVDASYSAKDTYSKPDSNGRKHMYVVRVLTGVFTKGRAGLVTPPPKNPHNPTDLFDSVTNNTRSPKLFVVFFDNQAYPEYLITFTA
Experimental: A portion of PARP15 (residues 481 to 678 of NP_689828.1 (SEQ ID NO: 5), GenBank Accession No. NM_152615) was overexpressed in Sf9 cells. An N-terminal fusion tag, […] (SEQ ID NO: 10), was used to purify the protein from cell lysates. The fusion tag was left on the protein for use in the probe displacement assay.
as §1, with “in a” for “in an”, “of ULight-streptavidin” for “of ULight-anti 6×His”, “1024 Anti-6×His” for “1024 labeled streptavidin”

PARP12 = molecular target: T3, PARP12 (Homo sapiens, UniProt Q9H0J9); test: In vitro TR-FRET probe displacement assay (Probe C), PARP12; parameters: 489-684 of; conditions: TR-FRET displacement of Probe C, PARP12 residues 489-684
T3 sequence (Q9H0J9 489-684): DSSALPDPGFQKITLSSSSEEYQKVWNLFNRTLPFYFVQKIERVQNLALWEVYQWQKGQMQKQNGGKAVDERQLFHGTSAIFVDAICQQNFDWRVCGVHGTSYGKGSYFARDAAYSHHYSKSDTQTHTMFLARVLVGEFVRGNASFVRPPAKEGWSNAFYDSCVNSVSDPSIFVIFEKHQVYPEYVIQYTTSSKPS
Experimental: A portion of PARP12 (residues 489 to 684 of NP_073587.1 (SEQ ID NO: 3), GenBank Accession No. NM_022750.3) was overexpressed in Sf9 cells. An N-terminal fusion tag, MAHHHHHHENLYFQSM (SEQ ID NO: 8), was used to purify the protein from cell lysates. The fusion tag was left on the protein for use in the probe displacement assay.
as §1, with “in a” for “in an”, “of ULight-streptavidin” for “of ULight-anti 6×His”, “1024 Anti-6×His” for “1024 labeled streptavidin”

- pIC50 (TIPARP): 8.15
- pIC50 (PARP15): 7.22
- pIC50 (PARP12): 6.70
Compound: O=c1[nH]ncc(N2Cc3ccc(OC4CCNCC4)cc3C2)c1C(F)(F)F [Compound A, 5-[5-(Piperidin-4-yloxy)-2,3-dihydro-1H-isoindol-2-yl]-4-(trifluoromethyl)-2,3-dihydropyridazin-3-one]

From patent publication US11293927B2, “Screening methods for PARP modulators” (Ribon Therapeutics, Inc., priority 2018, dated 2022)
